Data: US6080724A, “Peptides which can be used as vectors for the intracellular addressing of active molecules” (Centre National de la Recherche Scientifique (CNRS), priority 1995, dated 2000)

Test system: E15 cortex and striatum cells
Experiment: Cellular localization of biotinylated peptides by confocal microscopy (fluorescent streptavidin)
Type: cell-based
Conditions: 2 h
Procedure: The cells were then washed, fixed and stained with fluorescent streptavidin.
The entry of the peptides of Table II was tested only by confocal microscopy; indeed, the absence of lysine in these peptides makes the attachments very difficult and therefore requires a very rapid observation which is incompatible with transfers onto filters or ELISA tests (multiple washes).
The E15 cortex and striatum cells are cultured on glass coverslips at a density of 25,000 cells/cm^2 for 2 days. The peptides are all added at a final concentration of 20 μM. […] The sections observed by confocal microscopy are presented in FIGS. 3 (37° C.) and 4 (4° C.). The cells which have integrated the peptide appear fluorescent, on a black background.
E15 cortex and striatum cells are cultured on glass coverslips at a density of 25,000 cells/cm^2 for 2 days. The peptides are added at a final concentration of 20 μM for peptide 43-58 and of 2 μM for the others and the cells are incubated for 2 h at 37° C. […] The results are illustrated in FIG. 6.

Substance: Biot-Apa-Arg-Gln-Pro-Lys-Ile-Trp-Phe-Pro-Asn-Arg-Arg-Lys-Pro-Trp-Lys-Lys [3Pro]
- internalization (20 μM, 37° C. and 4° C.): does not prevent internalization
- nuclear addressing (20 μM, 37° C. and 4° C.): appears to interfere with nuclear addressing

Substance: Biot-Apa-Arg-Leu-Arg-Arg-Leu-Leu-Arg-Arg-Leu-Leu-Arg-Arg-Leu-Arg-Arg [L/R]
- internalization and cytoplasmic and nuclear addressing (localization) (2 μM, 37° C., streptavidin-FITC): found in a fraction which is apparently of the vesicular type, probably of endocytic character
